Earlier results as cited in patent US5831002A, “Antitumor peptides” (BASF Aktiengesellschaft, priority 1995, dated 1998).

Conditions: background, literature; cited from earlier work

Substance | cell growth inhibitory activity
Dolastatin-10 | potent cell growth inhibitory activity
Dolastatin-15 | potent cell growth inhibitory activity
